Measurements published in PubChem BioAssay (NCI).
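Briefly, cells in 96-well plates were exposed to five compound concentrations for 48 h, and endpoints were estimated by linear interpolation. TGI marks complete inhibition of growth.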

Legend:
Assay in all cases: NCI anticancer screen, dose series, 48 h
[1] = test system: 786-0 renal
[2] = test system: A498 renal
[3] = test system: A549 NSCLC
[4] = test system: ACHN renal
[5] = test system: CAKI-1 renal
[6] = test system: CCRF-CEM leukemia
[7] = test system: COLO 205 colon
[8] = test system: DLD-1 colon
[9] = test system: DMS 114 small cell lung
[10] = test system: DMS 273 small cell lung
[11] = test system: HCC-2998 colon
[12] = test system: HCT-116 colon
[13] = test system: HCT-15 colon
[14] = test system: HL-60(TB) leukemia
[15] = test system: HOP-18 NSCLC
[16] = test system: HOP-62 NSCLC
[17] = test system: HT29 colon
[18] = test system: IGROV1 ovarian
[19] = test system: K-562 leukemia
[20] = test system: KM12 colon
[21] = test system: KM20L2 colon
[22] = test system: LOX IMVI melanoma
[23] = test system: LXFL 529 NSCLC
[24] = test system: M14 melanoma
[25] = test system: M19-MEL melanoma
[26] = test system: MALME-3M melanoma
[27] = test system: MOLT-4 leukemia
[28] = test system: NCI-H226 lung
[29] = test system: NCI-H23 lung
[30] = test system: NCI-H460 lung
[31] = test system: NCI-H522 lung
[32] = test system: OVCAR-3 ovarian
[33] = test system: OVCAR-4 ovarian
[34] = test system: OVCAR-5 ovarian
[35] = test system: OVCAR-8 ovarian
[36] = test system: RPMI-8226 leukemia
[37] = test system: RXF 393 renal
[38] = test system: RXF-631 renal
[39] = test system: SF-268 CNS
[40] = test system: SF-295 CNS
[41] = test system: SF-539 CNS
[42] = test system: SK-MEL-2 melanoma
[43] = test system: SK-MEL-28 melanoma
[44] = test system: SK-MEL-5 melanoma
[45] = test system: SK-OV-3 ovarian
[46] = test system: SN12C renal
[47] = test system: SNB-19 CNS
[48] = test system: SNB-75 CNS
[49] = test system: SNB-78 CNS
[50] = test system: SR leukemia
[51] = test system: SW-620 colon
[52] = test system: TK-10 renal
[53] = test system: U251 CNS
[54] = test system: UACC-257 melanoma
[55] = test system: UACC-62 melanoma
[56] = test system: UO-31 renal
[57] = test system: EKVX NSCLC
[58] = test system: HOP-92 NSCLC
[59] = test system: XF 498 CNS

Compound O=C(c1ccc(Cl)cc1Cl)C1[C@H]2C(=O)N(c3ccc(Cc4ccc(N5C(=O)[C@@H]6ON(c7ccccc7)C(C(=O)c7ccc(Cl)cc7Cl)[C@@H]6C5=O)cc4)cc3)C(=O)[C@H]2ON1c1ccccc1 (some centres not stated) has a TGI [1] greater than 50 µM, a TGI [2] greater than 50 µM and a TGI [3] greater than 50 µM. For the same compound, the TGI [4] was greater than 50 µM, the TGI [5] was greater than 50 µM and the TGI [6] was greater than 50 µM. It also gave a TGI [7] greater than 50 µM, a TGI [8] greater than 50 µM and a TGI [9] greater than 50 µM. For the same compound, the TGI [10] was greater than 50 µM, the TGI [11] was greater than 50 µM and the TGI [12] was greater than 50 µM. The TGI [13] was greater than 50 µM, the TGI [14] was greater than 50 µM and the TGI [15] was greater than 50 µM. The TGI [16] was greater than 50 µM, the TGI [17] was greater than 50 µM and the TGI [18] was greater than 50 µM. It also gave a TGI [19] greater than 50 µM, a TGI [20] greater than 50 µM and a TGI [21] greater than 50 µM. The TGI [22] was greater than 50 µM, the TGI [23] was greater than 50 µM and the TGI [24] was greater than 50 µM. For the same compound, the TGI [25] was greater than 50 µM, the TGI [26] was greater than 50 µM and the TGI [27] was greater than 50 µM. The TGI [28] was greater than 50 µM, the TGI [29] was greater than 50 µM and the TGI [30] was greater than 50 µM. For the same compound, the TGI [31] was greater than 50 µM, the TGI [32] was greater than 50 µM and the TGI [33] was greater than 50 µM. It also gave a TGI [34] greater than 50 µM, a TGI [35] greater than 50 µM and a TGI [36] greater than 50 µM. For the same compound, the TGI [37] was greater than 50 µM, the TGI [38] was greater than 50 µM and the TGI [39] was greater than 50 µM. The TGI [40] was greater than 50 µM, the TGI [41] was greater than 50 µM and the TGI [42] was greater than 50 µM. It also gave a TGI [43] greater than 50 µM, a TGI [44] greater than 50 µM and a TGI [45] greater than 50 µM. It also gave a TGI [46] greater than 50 µM, a TGI [47] greater than 50 µM and a TGI [48] greater than 50 µM. The TGI [49] was greater than 50 µM, the TGI [50] was greater than 50 µM and the TGI [51] was greater than 50 µM. The TGI [52] was greater than 50 µM, the TGI [53] was greater than 50 µM and the TGI [54] was greater than 50 µM. For the same compound, the TGI [55] was greater than 50 µM and the TGI [56] was greater than 50 µM.

CSc1nnc(CCC(=O)Nc2c(C)cccc2C)o1 showed a TGI [1] greater than 100 µM, a TGI [2] greater than 100 µM and a TGI [3] greater than 100 µM. The TGI [5] was greater than 100 µM, the TGI [6] was greater than 100 µM and the TGI [7] was greater than 100 µM. The TGI [8] was greater than 100 µM, the TGI [9] was greater than 100 µM and the TGI [57] was greater than 100 µM. The TGI [11] was greater than 100 µM, the TGI [12] was greater than 100 µM and the TGI [13] was greater than 100 µM. The TGI [14] was greater than 100 µM, the TGI [15] was greater than 100 µM and the TGI [16] was greater than 100 µM. The TGI [58] was greater than 100 µM, the TGI [17] was greater than 100 µM and the TGI [18] was greater than 100 µM. For the same compound, the TGI [19] was greater than 100 µM, the TGI [20] was greater than 100 µM and the TGI [21] was greater than 100 µM. For the same compound, the TGI [22] was greater than 100 µM, the TGI [23] was greater than 100 µM and the TGI [24] was greater than 100 µM. It also gave a TGI [25] greater than 100 µM, a TGI [26] greater than 100 µM and a TGI [27] greater than 100 µM. The TGI [28] was greater than 100 µM, the TGI [29] was greater than 100 µM and the TGI [30] was greater than 100 µM. It also gave a TGI [31] greater than 100 µM, a TGI [32] greater than 100 µM and a TGI [33] greater than 100 µM. The TGI [34] was greater than 100 µM, the TGI [35] was greater than 100 µM and the TGI [36] was greater than 100 µM. The TGI [37] was greater than 100 µM, the TGI [38] was greater than 100 µM and the TGI [39] was greater than 100 µM. For the same compound, the TGI [40] was greater than 100 µM, the TGI [41] was greater than 100 µM and the TGI [42] was greater than 100 µM. The TGI [43] was greater than 100 µM, the TGI [44] was greater than 100 µM and the TGI [45] was greater than 100 µM. The TGI [46] was greater than 100 µM, the TGI [47] was greater than 100 µM and the TGI [48] was greater than 100 µM. For the same compound, the TGI [49] was greater than 100 µM, the TGI [51] was greater than 100 µM and the TGI [52] was greater than 100 µM. The TGI [53] was greater than 100 µM, the TGI [54] was greater than 100 µM and the TGI [55] was greater than 100 µM. The TGI [56] was greater than 100 µM and the TGI [59] was greater than 100 µM.

CCOC(=O)CC[C@H](NC(=O)c1nc[nH]c1[N+](=O)[O-])C(=O)OCC gave a TGI [1] greater than 100 µM, a TGI [2] greater than 100 µM and a TGI [3] greater than 100 µM. For the same compound, the TGI [4] was greater than 100 µM, the TGI [6] was greater than 100 µM and the TGI [7] was greater than 100 µM. It also gave a TGI [8] greater than 100 µM, a TGI [9] greater than 100 µM and a TGI [10] greater than 100 µM. It also gave a TGI [57] greater than 100 µM, a TGI [11] greater than 100 µM and a TGI [12] greater than 100 µM. The TGI [13] was greater than 100 µM, the TGI [14] was greater than 100 µM and the TGI [15] was greater than 100 µM. For the same compound, the TGI [16] was greater than 100 µM, the TGI [58] was greater than 100 µM and the TGI [18] was greater than 100 µM. The TGI [19] was greater than 100 µM, the TGI [20] was greater than 100 µM and the TGI [21] was greater than 100 µM. It also gave a TGI [22] greater than 100 µM, a TGI [23] greater than 100 µM and a TGI [24] greater than 100 µM. For the same compound, the TGI [26] was greater than 100 µM, the TGI [27] was greater than 100 µM and the TGI [28] was greater than 100 µM. For the same compound, the TGI [29] was greater than 100 µM, the TGI [30] was greater than 100 µM and the TGI [31] was greater than 100 µM. For the same compound, the TGI [32] was greater than 100 µM, the TGI [33] was greater than 100 µM and the TGI [35] was greater than 100 µM. For the same compound, the TGI [36] was greater than 100 µM, the TGI [37] was greater than 100 µM and the TGI [39] was greater than 100 µM. For the same compound, the TGI [40] was greater than 100 µM, the TGI [41] was greater than 100 µM and the TGI [42] was greater than 100 µM. It also gave a TGI [43] greater than 100 µM, a TGI [45] greater than 100 µM and a TGI [46] greater than 100 µM. For the same compound, the TGI [47] was greater than 100 µM, the TGI [49] was greater than 100 µM and the TGI [50] was greater than 100 µM. The TGI [52] was greater than 100 µM, the TGI [53] was greater than 100 µM and the TGI [54] was greater than 100 µM. The TGI [55] was greater than 100 µM and the TGI [56] was greater than 100 µM.
